Data taken from patent EP4796557A1, “POLYPEPTIDE, BIOACTIVE CONJUGATE, AND PREPARATION METHOD THEREFOR AND USE THEREOF” (priority 2023, dated 2025).
Square brackets hold non-standard residues; d marks the D form. Peptide text beside a SMILES is read from it. Cit = NC(=O)NCCC[C@H](N)C(=O)O

Columns and labels:
MMP2 = molecular target: T1, MMP2 (Homo sapiens, UniProt P08253); experiment: Enzymolysis assay of polypeptides by MMP2 (RP-HPLC); type: biochemical; settings: test polypeptide 100 µmol, activated MMP2, 37°C, 4 h
T1 sequence (P08253 110-660): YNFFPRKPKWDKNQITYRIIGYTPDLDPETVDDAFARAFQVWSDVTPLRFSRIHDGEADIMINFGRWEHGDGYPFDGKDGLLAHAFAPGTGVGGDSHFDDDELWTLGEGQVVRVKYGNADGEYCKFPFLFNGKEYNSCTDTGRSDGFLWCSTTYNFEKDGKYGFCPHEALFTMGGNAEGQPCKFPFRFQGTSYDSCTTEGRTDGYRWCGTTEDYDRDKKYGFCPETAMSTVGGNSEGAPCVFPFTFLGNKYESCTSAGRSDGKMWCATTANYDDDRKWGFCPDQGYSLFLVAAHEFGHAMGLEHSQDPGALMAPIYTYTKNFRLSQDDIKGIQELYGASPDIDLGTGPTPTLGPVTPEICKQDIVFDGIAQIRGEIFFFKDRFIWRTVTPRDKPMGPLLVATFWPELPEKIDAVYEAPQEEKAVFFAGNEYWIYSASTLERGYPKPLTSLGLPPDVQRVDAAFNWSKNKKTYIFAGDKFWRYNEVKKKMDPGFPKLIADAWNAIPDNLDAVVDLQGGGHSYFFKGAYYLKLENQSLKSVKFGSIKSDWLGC
Protocol: (§1) First, MMP2 or MMP9 enzyme solution having a final concentration of 200 µg/mL was mixed with 4 mM APMA at a ratio of 1:1, placed in a 37°C water bath and incubated for 24 h to activate the MMP2 or MMP9 enzyme solution. Subsequently, the test polypeptide having a final concentration of 100 µmol was incubated with the activated MMP2 or MMP9 enzyme solution in a 37°C water bath for 4 h. After the reaction was complete, an equal volume of acetonitrile solution was added thereto, followed by RP-HPLC analysis.
(§2) The enzymolysis efficiency of the polypeptide was calculated based on the peak areas of the target peak before and after enzymolysis. The formula is as follows: Enzymolysis efficiency = […] [formula]

MMP9 = MMP9 (Homo sapiens, UniProt P14780); experiment: Enzymolysis assay of polypeptides by MMP9 (RP-HPLC); type: biochemical; settings: polypeptide 100 µmol with activated MMP9, 37°C, 4 h, RP-HPLC peak areas
Sequence of MMP9 (P14780 107-707 limits assumed, species assumed): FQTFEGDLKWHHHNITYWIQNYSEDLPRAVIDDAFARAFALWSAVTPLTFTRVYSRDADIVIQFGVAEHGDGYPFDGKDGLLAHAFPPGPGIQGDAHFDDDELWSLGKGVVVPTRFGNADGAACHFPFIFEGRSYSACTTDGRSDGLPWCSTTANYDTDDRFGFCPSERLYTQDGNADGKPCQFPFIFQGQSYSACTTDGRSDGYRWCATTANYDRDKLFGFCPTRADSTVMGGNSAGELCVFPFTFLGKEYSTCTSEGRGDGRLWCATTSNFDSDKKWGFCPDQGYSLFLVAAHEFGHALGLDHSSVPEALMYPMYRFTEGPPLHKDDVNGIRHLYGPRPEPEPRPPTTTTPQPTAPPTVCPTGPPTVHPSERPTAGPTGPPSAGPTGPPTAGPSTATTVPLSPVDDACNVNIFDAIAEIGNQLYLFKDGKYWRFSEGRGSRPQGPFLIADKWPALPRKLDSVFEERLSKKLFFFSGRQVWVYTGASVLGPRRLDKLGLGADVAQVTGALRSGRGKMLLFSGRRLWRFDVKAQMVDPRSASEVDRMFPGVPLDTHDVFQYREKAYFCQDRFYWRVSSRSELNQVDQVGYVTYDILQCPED
Protocol: as §1, §2

Row | Enzymolysis efficiency (%) (MMP2) | Enzymolysis efficiency (%) (MMP9) | Compound
1 | 13.02% | 13.30% | Ac-IPVSLGGFG-NH2 [Compound 1-P16]
2 | 66.36% | 97.39% | CC(=O)N1CCC[C@H]1C(=O)N[C@@H](CCCNC(=N)N)C(=O)N[C@@H](CC(N)=O)C(=O)N[C@@H](CC(C)C)C(=O)N[C@H](C(=O)N[C@@H](CCCNC(N)=O)C(N)=O)C(C)C [Compound 2-P3] (Ac-PRNLV[Cit]-NH2)
3 | 82.72% | 37.81% | Ac-GPSGLGGFG-NH2 [Compound 1-P22]
4 | 100.00% | 84.35% | CC(=O)NCC(=O)N1CCC[C@H]1C(=O)N[C@@H](C)C(=O)N[C@@H](CC(N)=O)C(=O)N[C@@H](CC(C)C)C(=O)N[C@H](C(=O)N[C@@H](CCCNC(N)=O)C(N)=O)C(C)C [Compound 2-P26] (Ac-GPANLV[Cit]-NH2)
5 | 68.38% | 9.10% | Ac-GPASLGGFG-NH2 [Compound 1-P18]
6 | 86.03% | 93.84% | CC(=O)N[C@@H](CO)C(=O)N1CCC[C@H]1C(=O)N[C@@H](CCCNC(=N)N)C(=O)NCC(=O)N[C@@H](CC(C)C)C(=O)N[C@H](C(=O)N[C@@H](CCCNC(N)=O)C(N)=O)C(C)C [Compound 2-P18] (Ac-SPRGLV[Cit]-NH2)
7 | 14.28% | – | CC(=O)N[C@@H](Cc1c[nH]cn1)C(=O)N[C@H](C(=O)N[C@@H](CC(C)C)C(=O)N[C@@H](CC(N)=O)C(=O)N[C@@H](CC(C)C)C(=O)N[C@H](C(=O)N[C@@H](CCCNC(N)=O)C(N)=O)C(C)C)C(C)C [Compound 1-P2] (Ac-HVLNLV[Cit]-NH2)
8 | 52.03% | 54.80% | CC(=O)NCC(=O)N1CCC[C@H]1C(=O)N[C@@H](CC(C)C)C(=O)N[C@@H](CO)C(=O)N[C@@H](CC(C)C)C(=O)N[C@H](C(=O)N[C@@H](CCCNC(N)=O)C(N)=O)C(C)C [Compound 1-P5] (Ac-GPLSLV[Cit]-NH2)
9 | 71.24% | 80.34% | CC(=O)NCC(=O)N1CCC[C@H]1C(=O)N[C@@H](CCCNC(N)=O)C(=O)NCC(=O)N[C@@H](CC(C)C)C(=O)N[C@H](C(=O)N[C@@H](CCCNC(N)=O)C(N)=O)C(C)C [Compound 2-P10] (Ac-GP[Cit]GLV[Cit]-NH2)
10 | 42.87% | 48.98% | CC(=O)N[C@@H](Cc1c[nH]cn1)C(=O)N1CCC[C@H]1C(=O)N[C@@H](CCCNC(N)=O)C(=O)N1CCC[C@H]1C(=O)N[C@@H](CC(C)C)C(=O)N[C@H](C(=O)N[C@@H](CCCNC(N)=O)C(N)=O)C(C)C [Compound 2-P17] (Ac-HP[Cit]PLV[Cit]-NH2)
11 | 21.87% | 18.84% | CC[C@H](C)[C@H](NC(C)=O)C(=O)N1CCC[C@H]1C(=O)N[C@H](C(=O)N[C@@H](CO)C(=O)N[C@@H](CC(C)C)C(=O)N[C@H](C(=O)N[C@@H](CCCNC(N)=O)C(N)=O)C(C)C)C(C)C [Compound 1-P4] (Ac-IPVSLV[Cit]-NH2)
12 | 90.13% | 45.08% | CC(=O)NCC(=O)N1CCC[C@H]1C(=O)N[C@@H](CO)C(=O)N[C@@H](C)C(=O)N[C@@H](CC(C)C)C(=O)N[C@H](C(=O)N[C@@H](CCCNC(N)=O)C(N)=O)C(C)C [Compound 1-P13] (Ac-GPSALV[Cit]-NH2)
13 | 36.21% | 36.08% | CC(=O)N1CCC[C@H]1C(=O)N[C@@H](CCCNC(N)=O)C(=O)N1CCC[C@H]1C(=O)N[C@@H](CC(C)C)C(=O)N[C@H](C(=O)N[C@@H](CCCNC(N)=O)C(N)=O)C(C)C [Compound 2-P6] (Ac-P[Cit]PLV[Cit]-NH2)
14 | 57.42% | 81.06% | CC(=O)N[C@@H](Cc1c[nH]cn1)C(=O)N1CCC[C@H]1C(=O)N[C@@H](CCCNC(=N)N)C(=O)N[C@@H](CO)C(=O)N[C@@H](CC(C)C)C(=O)N[C@H](C(=O)N[C@@H](CCCNC(N)=O)C(N)=O)C(C)C [Compound 2-P13] (Ac-HPRSLV[Cit]-NH2)
15 | 86.72% | 28.79% | CC(=O)NCC(=O)N1CCC[C@H]1C(=O)N[C@@H](C)C(=O)N[C@@H](CO)C(=O)N[C@@H](CC(C)C)C(=O)N[C@H](C(=O)N[C@@H](CCCNC(N)=O)C(N)=O)C(C)C [Compound 1-P6] (Ac-GPASLV[Cit]-NH2)
16 | 70.46% | 95.84% | CC(=O)N[C@@H](CO)C(=O)N1CCC[C@H]1C(=O)N[C@@H](CCCNC(=N)N)C(=O)N[C@@H](CC(N)=O)C(=O)N[C@@H](CC(C)C)C(=O)N[C@H](C(=O)N[C@@H](CCCNC(N)=O)C(N)=O)C(C)C [Compound 2-P21] (Ac-SPRNLV[Cit]-NH2)
17 | 77.00% | 100.00% | CC(=O)NCC(=O)N1CCC[C@H]1C(=O)N[C@@H](CCCNC(=N)N)C(=O)N[C@@H](CC(N)=O)C(=O)N[C@@H](CC(C)C)C(=O)N[C@H](C(=O)N[C@@H](CCCNC(N)=O)C(N)=O)C(C)C [Compound 2-P9] (Ac-GPRNLV[Cit]-NH2)
18 | 37.27% | 27.26% | Ac-GPLSLGGFG-NH2 [Compound 1-P17]
19 | 77.58% | 95.73% | CC(=O)N[C@@H](Cc1c[nH]cn1)C(=O)N1CCC[C@H]1C(=O)N[C@@H](CCCNC(=N)N)C(=O)NCC(=O)N[C@@H](CC(C)C)C(=O)N[C@H](C(=O)N[C@@H](CCCNC(N)=O)C(N)=O)C(C)C [Compound 2-P12] (Ac-HPRGLV[Cit]-NH2)
20 | 33.63% | 59.39% | CC(=O)N[C@@H](CO)C(=O)N1CCC[C@H]1C(=O)N[C@@H](CCCNC(N)=O)C(=O)N[C@@H](CO)C(=O)N[C@@H](CC(C)C)C(=O)N[C@H](C(=O)N[C@@H](CCCNC(N)=O)C(N)=O)C(C)C [Compound 2-P23] (Ac-SP[Cit]SLV[Cit]-NH2)
21 | 86.82% | 81.51% | CC(=O)NCC(=O)N1CCC[C@H]1C(=O)N[C@@H](CCCNC(=N)N)C(=O)NCC(=O)N[C@@H](CC(C)C)C(=O)N[C@H](C(=O)N[C@@H](CCCNC(N)=O)C(N)=O)C(C)C [Compound 1-P11] (Ac-GPRGLV[Cit]-NH2)
22 | 89.82% | 29.28% | Ac-GPAGLGGFG-NH2 [Compound 1-P19]
23 | 55.07% | 62.58% | CC(=O)NCC(=O)N1CCC[C@H]1C(=O)N[C@@H](CCCNC(=N)N)C(=O)N1CCC[C@H]1C(=O)N[C@@H](CC(C)C)C(=O)N[C@H](C(=O)N[C@@H](CCCNC(N)=O)C(N)=O)C(C)C [Compound 2-P8] (Ac-GPRPLV[Cit]-NH2)
24 | 11.78% | 4.86% | Ac-HVLNLGGFG-NH2 [Compound 1-P14]
25 | 85.08% | 45.37% | CC(=O)NCC(=O)N1CCC[C@H]1C(=O)N[C@@H](C)C(=O)N1CCC[C@H]1C(=O)N[C@@H](CC(C)C)C(=O)N[C@H](C(=O)N[C@@H](CCCNC(N)=O)C(N)=O)C(C)C [Compound 2-P25] (Ac-GPAPLV[Cit]-NH2)
26 | 61.03% | 68.91% | CC(=O)N1CCC[C@H]1C(=O)N[C@@H](CCCNC(N)=O)C(=O)NCC(=O)N[C@@H](CC(C)C)C(=O)N[C@H](C(=O)N[C@@H](CCCNC(N)=O)C(N)=O)C(C)C [Compound 2-P5] (Ac-P[Cit]GLV[Cit]-NH2)
27 | 53.54% | 64.81% | CC(=O)N[C@@H](Cc1c[nH]cn1)C(=O)N1CCC[C@H]1C(=O)N[C@@H](CCCNC(N)=O)C(=O)NCC(=O)N[C@@H](CC(C)C)C(=O)N[C@H](C(=O)N[C@@H](CCCNC(N)=O)C(N)=O)C(C)C [Compound 2-P16] (Ac-HP[Cit]GLV[Cit]-NH2)

Row | Compound | Enzymolysis efficiency (%) (MMP2) | Enzymolysis efficiency (%) (MMP9)
28 | CC(=O)N1CCC[C@H]1C(=O)N[C@@H](CCCNC(=N)N)C(=O)N1CCC[C@H]1C(=O)N[C@@H](CC(C)C)C(=O)N[C@H](C(=O)N[C@@H](CCCNC(N)=O)C(N)=O)C(C)C [Compound 2-P4] (Ac-PRPLV[Cit]-NH2) | 46.14% | 61.01%
29 | CC(=O)N[C@@H](CO)C(=O)N1CCC[C@H]1C(=O)N[C@@H](CCCNC(=N)N)C(=O)N1CCC[C@H]1C(=O)N[C@@H](CC(C)C)C(=O)N[C@H](C(=O)N[C@@H](CCCNC(N)=O)C(N)=O)C(C)C [Compound 2-P20] (Ac-SPRPLV[Cit]-NH2) | 52.52% | 57.87%
30 | Ac-GPSALGGFG-NH2 [Compound 1-P25] | 83.12% | 38.53%
